From US6984649B1, “Pyridine derivatives” (Bayer Aktiengesellschaft, priority 2000, dated 2006)

molecular target: T1, human IKK-β (Homo sapiens, UniProt O14920); assay: IKK-β kinase inhibitory assay; type: biochemical; settings: compounds as yielded by solid phase synthesis, purity about 40 to 90%, read-out: In vitro activity grade (In vitro IC50)
T1 construct: A cDNA fragment encoding human IKK-β open reading frame was generated by PCR; His tag (from pcDNA3.1/His C); made in house; host or cells: Sf21 insect cells (baculovirus); substrate made in E. coli
T1 sequence (O14920 1-756): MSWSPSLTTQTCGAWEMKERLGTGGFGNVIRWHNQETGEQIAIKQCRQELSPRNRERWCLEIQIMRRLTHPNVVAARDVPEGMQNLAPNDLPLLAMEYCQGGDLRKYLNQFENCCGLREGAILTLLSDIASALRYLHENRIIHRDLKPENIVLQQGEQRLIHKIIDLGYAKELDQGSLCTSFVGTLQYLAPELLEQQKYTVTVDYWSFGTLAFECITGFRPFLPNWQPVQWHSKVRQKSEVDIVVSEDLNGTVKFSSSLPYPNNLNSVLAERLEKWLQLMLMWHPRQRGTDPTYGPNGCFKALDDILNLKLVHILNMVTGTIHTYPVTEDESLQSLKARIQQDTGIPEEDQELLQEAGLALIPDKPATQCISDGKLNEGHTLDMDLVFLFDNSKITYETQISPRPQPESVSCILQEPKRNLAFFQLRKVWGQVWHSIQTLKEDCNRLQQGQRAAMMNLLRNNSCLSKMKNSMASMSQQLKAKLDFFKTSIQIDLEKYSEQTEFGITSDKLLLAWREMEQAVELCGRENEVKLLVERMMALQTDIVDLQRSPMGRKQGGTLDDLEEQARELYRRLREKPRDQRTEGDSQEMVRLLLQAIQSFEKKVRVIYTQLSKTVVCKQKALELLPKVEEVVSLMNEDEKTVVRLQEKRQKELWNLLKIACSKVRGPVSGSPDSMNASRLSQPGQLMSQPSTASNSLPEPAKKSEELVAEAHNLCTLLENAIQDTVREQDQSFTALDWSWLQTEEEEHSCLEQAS
How it was run: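 Radiometric read-out: streptavidin capture of 33P-labelled bio-GST-IκBα(1-54), 0.2 μM, after a 2 h room-temperature reaction started with ATP/[γ-33P]ATP. Enzyme was recombinant His-tagged human IKK-β expressed in Sf21 insect cells, used at 0.6 μg/ml in Tris-HCl pH 7.6/MgCl2 kinase buffer. Compounds added in 2.5% DMSO.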

SMILES | IC50 [µM]
NC(=O)NCc1c(C2CCCNC2)cc(-c2c(O)cccc2OCC2CC2)nc1N (centres unmarked) [Example 23-13] | < 0.5
Nc1nc(-c2c(O)cccc2OCC2CC2)cc(C2CCCNC2)c1CNC(=O)Nc1ccccc1 (centres unmarked) [Example 23-14] | < 0.5
Nc1nc(-c2c(O)cccc2OCC2CC2)cc(C2CCCNC2)c1CNC(=S)Nc1ccccc1 (centres unmarked) [Example 23-15] | < 0.5
CC(C)OC(=O)N1Cc2c(C3CCCNC3)cc(-c3c(O)cccc3OCC3CC3)nc2NC1=O (centres unmarked) [Example 24-05] | < 0.5
CC(C)COC(=O)N1Cc2c(C3CCCNC3)cc(-c3c(O)cccc3OCC3CC3)nc2NC1=O (centres unmarked) [Example 24-06] | < 0.5
CC(C)(C)COC(=O)N1Cc2c(C3CCCNC3)cc(-c3c(O)cccc3OCC3CC3)nc2NC1=O (centres unmarked) [Example 24-07] | < 0.5
CN(C)C(=O)N1Cc2c(C3CCCNC3)cc(-c3c(O)cccc3OCC3CC3)nc2NC1=O (centres unmarked) [Example 24-08] | < 0.5
NC(=O)N1Cc2c(C3CCCNC3)cc(-c3c(O)cccc3OCC3CC3)nc2NC1=O (centres unmarked) [Example 24-10] | < 0.5
